From PubChem BioAssay AID2060906 (Molecular Pharmacology Branch, DTP, NCI, 2025)

Tested on: 485176-168-R4-J1-PDC complex spheroid growth
Experiment: Anticancer human tumor 485176-168-R4-J1-PDC patient-derived pancreatic adenocarcinoma cell line growth inhibition [RAS]
Conditions: for IC50: curve of first compound; for viability, T/C: stronger effect = lower value
Text: RAS pathway inhibitors in Combinations in Complex Spheroids
A high-throughput screen of multi-cell type tumor spheroids was designed to identify active combinations of RAS pathway inhibitors and targeted small molecules. Complex spheroids include a stromal component modeled by human endothelial cells (HUVEC) and fibroblasts modeled by human mesenchymal stem cells (MSCs). The concentration ranges selected for each drug and investigational agent were based upon clinically achievable concentrations if the clinical Cmax of the agent was known.
Compounds. The drugs and investigational agents: abemaciclib (NSC768073), cobimetinib (NSC768068), divarasib (GDC6063, NSC841802), docetaxel (NSC628503), GDC-1971 (RLY-1971, NSC841576), gemcitabine (NSC613327), inavolisib (NSC800729), ipatasertib (NSC767898), KB-0742 (NSC834161), MRTX-1133 (NSC836407), osimertinib (NSC779217), RMC-4630 (NSC839698), RMC-6236 (NSC851965), RMC-6291 (NSC852671), Ro-3306 (NSC812927), sapanisertib (NSC764658), SN-38 (NSC673596), staurosporine (NSC755774), SY5609 (NSC837396), and tovorafenib (DAY101, NSC766906), were obtained from the National Cancer Institute (NCI) Developmental Therapeutics Program Chemical Repository. The FDA-approved anticancer drug set is available from the NCI Developmental Therapeutics Program. […] The stock solutions were prepared in dimethyl sulfoxide (DMSO, Sigma-Aldrich, St. Louis, MO, cat. D2650) at 800-fold the tested concentration and stored at -70 degrees C prior to their use. All drugs and investigational agents were tested over a range starting from a high concentration at or near the clinical Cmax and decreasing in half-log increments. If the clinical Cmax for an agent had not been determined, the highest concentration tested was 10 microM.
Cell Culture. All cells were maintained in an incubator at 37 degrees C and 5% CO2 with 95% humidity. The PDC lines were cultured according to standard operating procedures established by the NCI PDMR. All PDCs were thawed and cultured in Matrigel-coated flasks prepared with a working solution of 1X Ham's F-12 nutrient mix, without supplementation (Invitrogen, Waltham, MA, cat. 11765054), 100 U/mL penicillin-streptomycin (Invitrogen, cat. 15140122), and 2.5% Matrigel (Corning Inc., Corning, NY, cat. 354248) for the first three passages. The 362531-283-R-J2-PDC and 782815-120-R-J1-PDC lines were cultured in 6C/Colon 1B media, which includes advanced DMEM/F-12 (Thermo Fisher Scientific, cat. 12634028), 10 mM HEPES (Thermo Fisher Scientific, cat. 15630080), 1X GlutaMAX supplement (Thermo Fisher Scientific, cat. 35050061), 0.1 mg/mL primocin (InvivoGen, San Diego, CA, cat. ant-pm-2), 10% defined fetal bovine serum, heat inactivated (HyClone Laboratories Inc., Logan, UT, cat. SH30070.03HI), 50% L-WRN conditioned media (ATCC, cat. CRL-3276), 1.25 mM N-Acetyl-L-cysteine (Sigma-Aldrich, cat. A9165), 10 mM nicotinamide (Sigma-Aldrich, cat. N0636), 1X B-27 supplement (Thermo Fisher Scientific, cat. 17504044), 1X N-2 supplement (Thermo Fisher Scientific, cat. 17502048), 50 ng/mL human EGF (Thermo Fisher Scientific, cat. PHG0311), and 10 microM Y-27632 dihydrochloride (Tocris Bioscience, cat. 1254). The K12877-001-R-J1-PDC line was cultured in 6I media, which includes all 6C/Colon 1B media plus 10 ng/mL human FGF-10 (PeproTech, cat. 100-26), 1 ng/mL human FGF-2 (PeproTech, cat. 100-18B), 1 µM prostaglandin E2 (Tocris Bioscience, cat. 2296), […] hydrocortisone (Sigma-Aldrich, cat. H4001), and […] bovine insulin (Sigma-Aldrich, cat. I6634). The K86415-001-R-J1-PDC line was cultured in 6D media, which includes all 6C/Colon 1B media components minus the L-WRN conditioned media. The 485176-168-R4-J1-PDC was cultured in PANC media, which includes all 6C/Colon 1B media plus 100 ng/mL human FGF-10 (PeproTech, cat. 100-26), 500 nM SB-431542 (Selleckchem, cat. S1067), and 10 nM gastrin (Tocris Bioscience, cat. 3006). […]

[1] = second compound 0.0316 µM, first compound 0.0316 µM
[2] = second compound 0.0316 µM, first compound 0.1 µM
[3] = second compound 0.0316 µM, first compound 0.316 µM
[4] = second compound 0.0316 µM, first compound 1 µM
[5] = second compound 0.0316 µM, first compound 3.16 µM
[6] = second compound 0.0316 µM, first compound 10 µM
[7] = second compound 0.1 µM, first compound 0.0316 µM
[8] = second compound 0.1 µM, first compound 0.1 µM
[9] = second compound 0.1 µM, first compound 0.316 µM
[10] = second compound 0.1 µM, first compound 1 µM
[11] = second compound 0.1 µM, first compound 3.16 µM
[12] = second compound 0.1 µM, first compound 10 µM
[13] = second compound 0.316 µM, first compound 0.0316 µM
[14] = second compound 0.316 µM, first compound 0.1 µM
[15] = second compound 0.316 µM, first compound 0.316 µM
[16] = second compound 0.316 µM, first compound 1 µM
[17] = second compound 0.316 µM, first compound 3.16 µM
[18] = second compound 0.316 µM, first compound 10 µM
[19] = second compound 1 µM, first compound 0.0316 µM
[20] = second compound 1 µM, first compound 0.1 µM
[21] = second compound 1 µM, first compound 0.316 µM
[22] = second compound 1 µM, first compound 1 µM
[23] = second compound 1 µM, first compound 3.16 µM
[24] = second compound 1 µM, first compound 10 µM
[25] = second compound 3.16 µM, first compound 0.0316 µM
[26] = second compound 3.16 µM, first compound 0.1 µM
[27] = second compound 3.16 µM, first compound 0.316 µM
[28] = second compound 3.16 µM, first compound 1 µM
[29] = second compound 3.16 µM, first compound 3.16 µM
[30] = second compound 3.16 µM, first compound 10 µM
[31] = second compound 10 µM, first compound 0.0316 µM
[32] = second compound 10 µM, first compound 0.1 µM
[33] = second compound 10 µM, first compound 0.316 µM
[34] = second compound 10 µM, first compound 1 µM
[35] = second compound 10 µM, first compound 3.16 µM
[36] = second compound 10 µM, first compound 10 µM
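Note: spheroids exposed to compounds for seven days before readout.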
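Throughout, for viability, T/C: luminescence viability expressed relative to DMSO vehicle wells set as 100%.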

With `CC1(O)CCCC1n1c(=O)c(C(F)F)cc2cnc(NC3CCN(S(C)(=O)=O)CC3)nc21` (stereo unspecified) + C#Cc1c(F)ccc2cc(O)cc(-c3ncc4c(N5CC6CCC(C5)N6)nc(OCC56CCCN5CC(F)C6)nc4c3F)c12 the IC50 (second compound 0.0316 µM) was 2540 nM, the IC50 (second compound 0.1 µM) was 2970 nM and the IC50 (second compound 0.316 µM) was 3630 nM. For the same compound, the IC50 (second compound 1 µM) was 2080 nM, the IC50 (second compound 3.16 µM) was 2210 nM and the IC50 (second compound 10 µM) was 2900 nM. The viability, T/C [1] was 95%, the viability, T/C [2] was 66.2% and the viability, T/C [3] was 60.5%. It also gave a viability, T/C [4] of 79.6%, a viability, T/C [5] of 44.1% and a viability, T/C [6] of 2.88%. For the same compound, the viability, T/C [7] was 78.7%, the viability, T/C [8] was 76.5% and the viability, T/C [9] was 68.7%. For the same compound, the viability, T/C [10] was 61.2%, the viability, T/C [11] was 53.6% and the viability, T/C [12] was 2.44%. The viability, T/C [13] was 89.9%, the viability, T/C [14] was 72.2% and the viability, T/C [15] was 68.3%. The viability, T/C [16] was 66.9%, the viability, T/C [17] was 60.4% and the viability, T/C [18] was 3.62%. For the same compound, the viability, T/C [19] was 91.5%, the viability, T/C [20] was 81.4% and the viability, T/C [21] was 66.8%. For the same compound, the viability, T/C [22] was 64.7%, the viability, T/C [23] was 47.2% and the viability, T/C [24] was 1.8%. For the same compound, the viability, T/C [25] was 104%, the viability, T/C [26] was 84.9% and the viability, T/C [27] was 66.2%. The viability, T/C [28] was 62.2%, the viability, T/C [29] was 58% and the viability, T/C [30] was 2.91%. For the same compound, the viability, T/C [31] was 89.1%, the viability, T/C [32] was 70.8% and the viability, T/C [33] was 82.7%. The viability, T/C [34] was 57.1%, the viability, T/C [35] was 55.9% and the viability, T/C [36] was 2.88%.
With `CCC(CC)c1cc(NC2CCC(N)C2)n2nccc2n1` (stereo unspecified) + C#Cc1c(F)ccc2cc(O)cc(-c3ncc4c(N5CC6CCC(C5)N6)nc(OCC56CCCN5CC(F)C6)nc4c3F)c12 the IC50 (second compound 0.0316 µM) was 1360 nM, the IC50 (second compound 0.1 µM) was 1480 nM and the IC50 (second compound 0.316 µM) was 1610 nM. For the same compound, the IC50 (second compound 1 µM) was 1610 nM, the IC50 (second compound 3.16 µM) was 1500 nM and the IC50 (second compound 10 µM) was 1460 nM. For the same compound, the viability, T/C [1] was 115%, the viability, T/C [2] was 80.2% and the viability, T/C [3] was 102%. For the same compound, the viability, T/C [4] was 67.5%, the viability, T/C [5] was 2.68% and the viability, T/C [6] was 0.57%. It also gave a viability, T/C [7] of 105%, a viability, T/C [8] of 106% and a viability, T/C [9] of 95.3%. For the same compound, the viability, T/C [10] was 74.5%, the viability, T/C [11] was 3.04% and the viability, T/C [12] was 0.56%. The viability, T/C [13] was 85.5%, the viability, T/C [14] was 103% and the viability, T/C [15] was 94.1%. It also gave a viability, T/C [16] of 83.5%, a viability, T/C [17] of 2.75% and a viability, T/C [18] of 0.5%. The viability, T/C [19] was 113%, the viability, T/C [20] was 89.7% and the viability, T/C [21] was 92%. The viability, T/C [22] was 83.1%, the viability, T/C [23] was 2.71% and the viability, T/C [24] was 0.44%. It also gave a viability, T/C [25] of 103%, a viability, T/C [26] of 90.3% and a viability, T/C [27] of 97%. The viability, T/C [28] was 75.2%, the viability, T/C [29] was 3.48% and the viability, T/C [30] was 0.51%. It also gave a viability, T/C [31] of 93.3%, a viability, T/C [32] of 96.3% and a viability, T/C [33] of 79%. For the same compound, the viability, T/C [34] was 73%, the viability, T/C [35] was 2.33% and the viability, T/C [36] was 0.39%.
`Cc1nc(N2CCC3(CC2)COC(C)C3N)c(CO)nc1Sc1ccnc(N)c1Cl` (stereo unspecified) + C#Cc1c(F)ccc2cc(O)cc(-c3ncc4c(N5CC6CCC(C5)N6)nc(OCC56CCCN5CC(F)C6)nc4c3F)c12 gave an IC50 (second compound 0.0316 µM) of over 10000 nM, an IC50 (second compound 0.1 µM) of over 10000 nM and an IC50 (second compound 0.316 µM) of over 10000 nM. For the same compound, the IC50 (second compound 1 µM) was over 10000 nM, the IC50 (second compound 3.16 µM) was over 10000 nM and the IC50 (second compound 10 µM) was over 10000 nM. For the same compound, the viability, T/C [1] was 111%, the viability, T/C [2] was 89.3% and the viability, T/C [3] was 79.5%. For the same compound, the viability, T/C [4] was 82.5%, the viability, T/C [5] was 88.5% and the viability, T/C [6] was 73.4%. It also gave a viability, T/C [7] of 91.6%, a viability, T/C [8] of 99.6% and a viability, T/C [9] of 83.4%. The viability, T/C [10] was 84.4%, the viability, T/C [11] was 85.6% and the viability, T/C [12] was 83%. For the same compound, the viability, T/C [13] was 83%, the viability, T/C [14] was 85.4% and the viability, T/C [15] was 86.7%. It also gave a viability, T/C [16] of 70.6%, a viability, T/C [17] of 81.8% and a viability, T/C [18] of 77.3%. For the same compound, the viability, T/C [19] was 85.5%, the viability, T/C [20] was 102% and the viability, T/C [21] was 71.4%. It also gave a viability, T/C [22] of 75.3%, a viability, T/C [23] of 77.7% and a viability, T/C [24] of 70.8%. The viability, T/C [25] was 92.6%, the viability, T/C [26] was 98.1% and the viability, T/C [27] was 96.2%. The viability, T/C [28] was 75.9%, the viability, T/C [29] was 86.5% and the viability, T/C [30] was 64.1%. It also gave a viability, T/C [31] of 80.4%, a viability, T/C [32] of 87.4% and a viability, T/C [33] of 87%. It also gave a viability, T/C [34] of 82.1%, a viability, T/C [35] of 80% and a viability, T/C [36] of 86.6%.
